Test system: Mamu-A1*007:01
Assay type: binding, Macaca mulatta
Details: Table 4; for Relative binding (WT): binding relative to the WT epitope

Sequence | Relative binding (WT) | Fold decrease (fold decrease of binding affinity versus WT epitope)
NYIYDRHGDTL [Peptide 3408.0007] | <0.000003 | >350000
SQGIRQILFL [Peptide 3408.0014] | 0.0035 | 
YHSNVKEL | 1.0 | 

— publication PMC3706270 (Immunogenetics, 2011)
